Paper PMC4669708 (Cell Death & Disease, 2015)

Key:
Assay in all cases: c-ponatinib pulldown LC-MS/MS
Assay type in all cases: binding
YWHAQ = target: T1, YWHAQ (Homo sapiens, UniProt P27348)
T1 sequence (P27348 1-245): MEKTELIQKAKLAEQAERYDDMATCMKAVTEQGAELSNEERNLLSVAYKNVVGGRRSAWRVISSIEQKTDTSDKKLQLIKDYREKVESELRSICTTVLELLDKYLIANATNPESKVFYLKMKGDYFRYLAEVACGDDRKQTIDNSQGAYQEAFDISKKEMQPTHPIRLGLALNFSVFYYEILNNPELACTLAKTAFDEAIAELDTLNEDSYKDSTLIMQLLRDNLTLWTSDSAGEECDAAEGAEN
Procedure, shortened: (§1)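 Read-out: interaction P-value combining Mascot scores, Phenyx scores and spectral counts (Fisher's method), plus fold reduction of median spectral counts on free-compound competition. Proteins were enriched from 10 mg cell lysate on c-ponatinib beads, then trypsin-digested for LC-MS/MS.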

MAPK14 = MAPK14 (Homo sapiens, UniProt Q16539)
Procedure, shortened: as §1

ABL1 = ABL1 (Homo sapiens, UniProt P00519)
Procedure, shortened: as §1

IRAK1 = IRAK1 (Homo sapiens, UniProt P51617)
Procedure, shortened: as §1

HSPA5 = HSPA5 (Homo sapiens, UniProt P11021)
Procedure, shortened: as §1

MAP3K7 = target: T2, MAP3K7 (Homo sapiens, UniProt O43318)
T2 sequence (O43318 1-606): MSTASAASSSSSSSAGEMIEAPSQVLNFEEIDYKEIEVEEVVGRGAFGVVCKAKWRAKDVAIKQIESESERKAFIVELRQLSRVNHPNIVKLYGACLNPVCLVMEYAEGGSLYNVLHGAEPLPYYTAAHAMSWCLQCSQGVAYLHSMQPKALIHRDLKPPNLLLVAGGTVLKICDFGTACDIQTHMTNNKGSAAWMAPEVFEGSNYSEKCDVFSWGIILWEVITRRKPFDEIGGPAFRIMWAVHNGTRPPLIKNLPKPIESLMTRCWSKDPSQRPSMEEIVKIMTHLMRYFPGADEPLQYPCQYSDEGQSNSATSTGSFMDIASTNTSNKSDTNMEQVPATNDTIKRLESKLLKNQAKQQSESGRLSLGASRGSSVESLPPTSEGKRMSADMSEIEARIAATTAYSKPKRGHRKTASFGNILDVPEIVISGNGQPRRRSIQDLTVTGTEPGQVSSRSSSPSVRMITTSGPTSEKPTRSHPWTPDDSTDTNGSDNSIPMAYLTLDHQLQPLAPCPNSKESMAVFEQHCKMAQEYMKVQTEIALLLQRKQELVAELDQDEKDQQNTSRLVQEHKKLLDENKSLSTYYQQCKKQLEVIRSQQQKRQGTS
Procedure, shortened: as §1

Chain of HSPA5 (P11021 19-654): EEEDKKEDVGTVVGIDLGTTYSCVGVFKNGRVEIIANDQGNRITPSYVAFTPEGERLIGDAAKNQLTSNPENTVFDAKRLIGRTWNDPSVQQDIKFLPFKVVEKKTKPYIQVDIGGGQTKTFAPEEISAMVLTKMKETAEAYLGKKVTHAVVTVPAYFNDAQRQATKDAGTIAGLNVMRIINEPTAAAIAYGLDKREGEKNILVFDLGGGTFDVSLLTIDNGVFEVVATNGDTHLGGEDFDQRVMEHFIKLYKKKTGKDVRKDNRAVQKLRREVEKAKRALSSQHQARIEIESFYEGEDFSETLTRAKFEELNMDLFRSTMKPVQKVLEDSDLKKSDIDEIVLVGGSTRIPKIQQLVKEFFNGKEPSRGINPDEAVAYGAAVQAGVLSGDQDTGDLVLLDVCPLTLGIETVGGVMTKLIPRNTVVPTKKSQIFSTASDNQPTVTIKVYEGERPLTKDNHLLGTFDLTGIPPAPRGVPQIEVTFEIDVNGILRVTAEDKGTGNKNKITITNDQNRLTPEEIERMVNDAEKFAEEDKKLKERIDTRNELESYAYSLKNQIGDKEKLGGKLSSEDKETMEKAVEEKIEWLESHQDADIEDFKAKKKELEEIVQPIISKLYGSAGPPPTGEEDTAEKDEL
Chain of MAPK14 (Q16539 whole entry): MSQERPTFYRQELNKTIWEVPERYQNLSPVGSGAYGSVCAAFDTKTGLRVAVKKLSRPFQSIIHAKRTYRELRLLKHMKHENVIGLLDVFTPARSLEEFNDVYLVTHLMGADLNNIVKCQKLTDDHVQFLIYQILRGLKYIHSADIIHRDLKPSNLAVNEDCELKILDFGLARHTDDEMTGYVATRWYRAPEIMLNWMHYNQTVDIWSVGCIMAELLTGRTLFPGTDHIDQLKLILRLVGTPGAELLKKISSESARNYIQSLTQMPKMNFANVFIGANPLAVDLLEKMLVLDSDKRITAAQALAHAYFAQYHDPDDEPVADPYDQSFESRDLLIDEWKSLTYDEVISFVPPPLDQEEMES
Chain of ABL1 (P00519 whole entry): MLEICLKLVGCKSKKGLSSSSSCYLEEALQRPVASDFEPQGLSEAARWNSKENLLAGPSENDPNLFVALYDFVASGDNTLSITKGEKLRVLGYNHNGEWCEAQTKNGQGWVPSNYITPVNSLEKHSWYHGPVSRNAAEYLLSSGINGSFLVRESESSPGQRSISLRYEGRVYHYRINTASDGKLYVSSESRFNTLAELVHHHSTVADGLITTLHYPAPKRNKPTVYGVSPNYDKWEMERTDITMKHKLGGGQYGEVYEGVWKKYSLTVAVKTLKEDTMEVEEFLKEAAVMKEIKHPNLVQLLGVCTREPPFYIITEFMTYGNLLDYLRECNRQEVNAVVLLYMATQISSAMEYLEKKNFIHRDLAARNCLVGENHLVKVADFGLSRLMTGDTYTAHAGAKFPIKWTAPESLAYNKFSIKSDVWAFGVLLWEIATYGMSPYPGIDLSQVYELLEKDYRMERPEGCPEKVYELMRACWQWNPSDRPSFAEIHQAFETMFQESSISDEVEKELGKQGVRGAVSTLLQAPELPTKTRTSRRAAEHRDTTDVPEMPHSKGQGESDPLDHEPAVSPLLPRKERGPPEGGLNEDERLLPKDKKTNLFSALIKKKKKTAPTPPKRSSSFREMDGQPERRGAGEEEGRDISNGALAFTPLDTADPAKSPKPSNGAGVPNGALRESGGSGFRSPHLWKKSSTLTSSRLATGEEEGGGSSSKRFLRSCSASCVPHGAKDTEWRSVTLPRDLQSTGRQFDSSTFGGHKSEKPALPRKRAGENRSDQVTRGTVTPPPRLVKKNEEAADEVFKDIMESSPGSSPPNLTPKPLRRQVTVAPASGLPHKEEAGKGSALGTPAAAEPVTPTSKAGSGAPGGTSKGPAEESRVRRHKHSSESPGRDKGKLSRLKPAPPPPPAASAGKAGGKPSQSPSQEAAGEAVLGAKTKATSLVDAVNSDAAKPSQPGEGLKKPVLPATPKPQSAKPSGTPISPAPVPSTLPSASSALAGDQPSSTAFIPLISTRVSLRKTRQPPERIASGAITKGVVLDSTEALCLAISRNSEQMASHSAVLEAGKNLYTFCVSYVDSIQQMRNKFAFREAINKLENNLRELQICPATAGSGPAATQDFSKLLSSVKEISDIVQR
Chain of IRAK1 (P51617 whole entry): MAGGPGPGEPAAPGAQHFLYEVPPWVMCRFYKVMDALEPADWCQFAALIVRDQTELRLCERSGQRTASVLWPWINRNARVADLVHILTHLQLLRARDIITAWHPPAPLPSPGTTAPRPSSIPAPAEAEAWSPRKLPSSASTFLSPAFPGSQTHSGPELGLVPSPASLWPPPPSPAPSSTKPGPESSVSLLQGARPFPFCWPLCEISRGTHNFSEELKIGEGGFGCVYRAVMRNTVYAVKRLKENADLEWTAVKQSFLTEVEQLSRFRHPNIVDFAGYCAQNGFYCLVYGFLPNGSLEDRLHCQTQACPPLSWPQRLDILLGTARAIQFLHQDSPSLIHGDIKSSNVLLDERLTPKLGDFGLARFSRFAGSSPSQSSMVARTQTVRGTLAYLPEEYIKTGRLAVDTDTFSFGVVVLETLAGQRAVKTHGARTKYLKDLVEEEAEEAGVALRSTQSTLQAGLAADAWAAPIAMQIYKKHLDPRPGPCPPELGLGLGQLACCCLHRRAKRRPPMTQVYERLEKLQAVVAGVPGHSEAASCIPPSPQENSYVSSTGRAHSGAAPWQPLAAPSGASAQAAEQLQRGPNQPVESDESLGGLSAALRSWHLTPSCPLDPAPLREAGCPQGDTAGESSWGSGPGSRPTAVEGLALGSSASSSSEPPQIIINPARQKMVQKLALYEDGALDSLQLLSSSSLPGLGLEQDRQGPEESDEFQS

For Cc1ccc(C(=O)Nc2ccc(CN3CCN(CCCN)CC3)c(C(F)(F)F)c2)cc1C#Cc1cnc2cccnn12 [c-ponatinib], the “Av. SC comp.” value (YWHAQ; + free ponatinib) was 1.25, the “Total SC comp.” value (YWHAQ; + free ponatinib) was 5 and the “Av. SC” value (YWHAQ; no competitor) was 9. The “Total SC” value (YWHAQ; no competitor) was 36, the “Av. SC comp.” value (MAPK14; + free ponatinib) was 7.25 and the “Total SC comp.” value (MAPK14; + free ponatinib) was 29. The “Av. SC” value (MAPK14; no competitor) was 79.25, the “Total SC” value (MAPK14; no competitor) was 317 and the “Av. SC comp.” value (ABL1; + free ponatinib) was 0. For the same compound, the “Total SC comp.” value (ABL1; + free ponatinib) was 0, the “Av. SC” value (ABL1; no competitor) was 13.75 and the “Total SC” value (ABL1; no competitor) was 55. For the same compound, the “Av. SC comp.” value (IRAK1; + free ponatinib) was 4, the “Total SC comp.” value (IRAK1; + free ponatinib) was 16 and the “Av. SC” value (IRAK1; no competitor) was 24.25. The “Total SC” value (IRAK1; no competitor) was 97, the “Av. SC comp.” value (HSPA5; + free ponatinib) was 2.75 and the “Total SC comp.” value (HSPA5; + free ponatinib) was 11. For the same compound, the “Av. SC” value (HSPA5; no competitor) was 7, the “Total SC” value (HSPA5; no competitor) was 28 and the “Av. SC comp.” value (MAP3K7; + free ponatinib) was 2.25. The “Total SC comp.” value (MAP3K7; + free ponatinib) was 9, the “Av. SC” value (MAP3K7; no competitor) was 19.5 and the “Total SC” value (MAP3K7; no competitor) was 78.
